We go through eleven compounds from patent EP0238178B1, “Novel derivatives of erythromycylamine” (ELI LILLY AND COMPANY, priority 1986, dated 1987).

Values after ≈ are worked out from the molar mass of the structure shown. Read-outs that look alike come from different tables or passages of the source. Bounds are passed on as bounds.

Assay [1] has as its system Haemophilus influenzae C.L. Put plainly: MIC, standard agar-dilution assay. It is filed as cell-based. The settings on record: Ampicillin-sensitive strain, read-out: MIC.
Assay [2] deals with Staphylococcus aureus X1.1. Description: MIC, standard agar-dilution assay. It is filed as cell-based. The settings on record: read-out: MIC.
The test system of assay [3] is Streptococcus pneumoniae Park I. Description: MIC, standard agar-dilution assay. It is filed as cell-based. The settings on record: read-out: MIC.
A further assay deals with Staphylococcus aureus. Description: Experimental bacterial infection in mice, ED50. It is filed as in vivo. The settings on record: Staphylococcus aureus, two doses, dose protecting 50% of animals. On the procedure: (§1) The new derivatives of this invention have also shown in vivo antimicrobial activity against experimental bacterial infections. When two doses of test compound were administered to mice in experimental infections, the activity observed was measured as an EDso value [effective dose in mg/kg to protect 50% of the test animals: see Warren Wick, et al., J. Bacteriol. 81, 233-235 (1961)].

The subject of another assay is Streptococcus pyogenes. Put plainly: Experimental bacterial infection in mice, ED50. In kind it is in vivo. The settings on record: Streptococcus pyogenes, two doses, dose protecting 50% of animals. As for the experimental part: as §1
Another assay has as its system Streptococcus pneumoniae. Description: Experimental bacterial infection in mice, ED50. The settings on record: Streptococcus pneumoniae, two doses, dose protecting 50% of animals. It is filed as in vivo. As for the experimental part:
as §1

Assay [4] has as its system Haemophilus influenzae 76. Description: MIC, standard agar-dilution assay. It is filed as cell-based. The settings on record: Haemophilus influenzae 76, Ampicillin-resistant strain; read-out: MIC.
Assay [5] concerns Staphylococcus aureus S13E. Description: MIC, standard agar-dilution assay. In kind it is cell-based.
The test system of assay [6] is Staphylococcus epidermidis 222. Description: MIC, standard agar-dilution assay. In kind it is cell-based. The settings on record: read-out: MIC.
Assay [7] relates to Streptococcus pyogenes C203. Description: MIC, standard agar-dilution assay. It is filed as cell-based. The settings on record: read-out: MIC.
In a further assay the test system is Escherichia coli EC14. Description: MIC, standard agar-dilution assay. The settings on record: read-out: MIC. In kind it is cell-based.
The test system of assay [8] is Streptococcus sp. group D X66. Put plainly: MIC, standard agar-dilution assay. In kind it is cell-based. The settings on record: Streptococcus sp. group D X66; read-out: MIC.
For assay [9], the system named is Streptococcus sp. group D 2041. Description: MIC, standard agar-dilution assay. In kind it is cell-based. The settings on record: read-out: MIC.
The mark [10] stands for this setting: sc, subcutaneous, read-out: Subcutaneous ED50.

As usually defined, the ED50 is the dose at which the effect has come halfway, by size or by number of responders. Consider `CCCCCCN[C@@H]1[C@H](C)[C@@H](O)[C@](C)(O)[C@@H](CC)OC(=O)[C@H](C)[C@@H](O[C@H]2C[C@@](C)(OC)[C@@H](O)[C@H](C)O2)[C@H](C)[C@@H](O[C@@H]2O[C@H](C)C[C@H](N(C)C)[C@H]2O)[C@](C)(O)C[C@H]1C` [Compound 6, 9-Deoxo-9-(n-hexylamino)erythromycin], for which the MIC was 4 µg/mL (≈ 4.88 µM) in assay [1]; 1 µg/mL (≈ 1.22 µM) in [2]; under 0.008 µg/mL in [3]; 4 µg/mL (≈ 4.88 µM) in [4]; 1 µg/mL (≈ 1.22 µM) in assay [5]; 0.25 µg/mL (≈ 0.305 µM) in [6]. The MIC stood at 0.125 µg/mL (≈ 0.153 µM) in [7], 64 µg/mL (≈ 78.1 µM) in the assay with Escherichia coli EC14, 0.125 µg/mL (≈ 0.153 µM) in assay [8] and 4 µg/mL (≈ 4.88 µM) in [9]. Besides, the ED50 in the assay with Staphylococcus aureus (po, read-out: Oral ED50) came to 38.6 mg/kg; in the assay on Streptococcus pyogenes (po, read-out: Oral ED50) it was 17.7 mg/kg; with Streptococcus pneumoniae (po, read-out: Oral ED50), 14.3 mg/kg.
As to `CCCCCCCN[C@@H]1[C@H](C)[C@@H](O)[C@](C)(O)[C@@H](CC)OC(=O)[C@H](C)[C@@H](O[C@H]2C[C@@](C)(OC)[C@@H](O)[C@H](C)O2)[C@H](C)[C@@H](O[C@@H]2O[C@H](C)C[C@H](N(C)C)[C@H]2O)[C@](C)(O)C[C@H]1C` [Compound 7, 9-Deoxo-9-(-n-heptylamino)erythromycin], the MIC in assay [1] is 1 µg/mL (≈ 1.2 µM); in assay [2], 0.25 µg/mL (≈ 0.3 µM); in [3] it was 0.015 µg/mL (≈ 0.018 µM); in assay [4], 2 µg/mL (≈ 2.4 µM); in assay [6] it was 0.25 µg/mL (≈ 0.3 µM); in assay [7], 0.015 µg/mL (≈ 0.018 µM). The figures for the MIC (in the assay with Escherichia coli EC14; in [8]; in assay [9]) were 64 µg/mL (≈ 76.8 µM), 0.06 µg/mL (≈ 0.072 µM) and 2 µg/mL (≈ 2.4 µM), respectively. For the same compound, the ED50 was over 50 mg/kg in the assay on Staphylococcus aureus (po, read-out: Oral ED50); 30.6 mg/kg in the assay with Streptococcus pyogenes (po, read-out: Oral ED50); 33.2 mg/kg in the assay on Streptococcus pneumoniae (po, read-out: Oral ED50).
For the compound `CC[C@H]1OC(=O)[C@H](C)[C@@H](O[C@H]2C[C@@](C)(OC)[C@@H](O)[C@H](C)O2)[C@H](C)[C@@H](O[C@@H]2O[C@H](C)C[C@H](N(C)C)[C@H]2O)[C@](C)(O)C[C@@H](C)[C@H](NCC2CC=CCC2)[C@H](C)[C@@H](O)[C@]1(C)O` (some centres unmarked) [Compound 15, 9-Deoxo-9-[(1-cyclohex-4-enylmethyl)amino]erythromycin], the MIC in assay [1] was 4 µg/mL (≈ 4.82 µM); in [2], 1 µg/mL (≈ 1.21 µM); in [3], under 0.008 µg/mL; in assay [4], 2 µg/mL (≈ 2.41 µM); in [5] it was 1 µg/mL (≈ 1.21 µM); in assay [6], 0.25 µg/mL (≈ 0.302 µM). The MIC in [7] worked out at 0.06 µg/mL (≈ 0.0724 µM); in the assay with Escherichia coli EC14, 64 µg/mL (≈ 77.2 µM); in assay [8], 0.25 µg/mL (≈ 0.302 µM); in assay [9] it was 8 µg/mL (≈ 9.65 µM). Besides, the ED50 turned out to be 20 mg/kg in the assay on Staphylococcus aureus (po, read-out: Oral ED50); 14.9 mg/kg in the assay with Streptococcus pyogenes (po, read-out: Oral ED50); 8.7 mg/kg in the assay with Streptococcus pneumoniae (po, read-out: Oral ED50).
For the compound `CC[C@H]1OC(=O)[C@H](C)[C@@H](O[C@H]2C[C@@](C)(OC)[C@@H](O)[C@H](C)O2)[C@H](C)[C@@H](O[C@@H]2O[C@H](C)C[C@H](N(C)C)[C@H]2O)[C@](C)(O)C[C@@H](C)[C@H](NCCCSC)[C@H](C)[C@@H](O)[C@]1(C)O` [Compound 26, 9-Deoxo-9-[[3-(methylthio)propyl]amino]erythromycin], the MIC was 4 µg/mL (≈ 4.86 µM) in assay [1]; 0.5 µg/mL (≈ 0.607 µM) in assay [2]; 0.015 µg/mL (≈ 0.0182 µM) in assay [3]; 4 µg/mL (≈ 4.86 µM) in assay [4]; 0.25 µg/mL (≈ 0.304 µM) in assay [5]; 0.5 µg/mL (≈ 0.607 µM) in assay [6]. Further, the MIC in assay [7] was determined as 0.015 µg/mL (≈ 0.0182 µM); with Escherichia coli EC14, 128 µg/mL (≈ 156 µM); in [8], 0.25 µg/mL (≈ 0.304 µM); in [9], 2 µg/mL (≈ 2.43 µM). Also, the ED50 was determined as 7.9 mg/kg in the assay on Streptococcus pyogenes (po, read-out: Oral ED50) and 9.2 mg/kg in the assay with Streptococcus pneumoniae (po, read-out: Oral ED50).
Consider `CCOC(=O)C1CC1CN[C@@H]1[C@H](C)[C@@H](O)[C@](C)(O)[C@@H](CC)OC(=O)[C@H](C)[C@@H](O[C@H]2C[C@@](C)(OC)[C@@H](O)[C@H](C)O2)[C@H](C)[C@@H](O[C@@H]2O[C@H](C)C[C@H](N(C)C)[C@H]2O)[C@](C)(O)C[C@H]1C` (some centres unmarked) [Compound 27, 9-Deoxo-9-[[[2-(ethoxycarbonyl)cyclopropyl]methyl]amino]erythromycin], for which the ED50 in the assay on Staphylococcus aureus (po, read-out: Oral ED50) worked out at 50 mg/kg; with Streptococcus pyogenes (po, read-out: Oral ED50), 27.1 mg/kg; with Streptococcus pneumoniae (po, read-out: Oral ED50), 30.4 mg/kg.
Take `CC[C@H]1OC(=O)[C@H](C)[C@@H](O[C@H]2C[C@@](C)(OC)[C@@H](O)[C@H](C)O2)[C@H](C)[C@@H](O[C@@H]2O[C@H](C)C[C@H](N(C)C)[C@H]2O)[C@](C)(O)C[C@@H](C)[C@H](NCCCC#N)[C@H](C)[C@@H](O)[C@]1(C)O` [Compound 29, 9-Deoxo-9-[(3-cyanopropyl)amino]erythromycin]: the ED50 turned out to be 36.1 mg/kg with Staphylococcus aureus (po, read-out: Oral ED50); 21.1 mg/kg with Streptococcus pyogenes (po, read-out: Oral ED50); 28.7 mg/kg in the assay with Streptococcus pneumoniae (po, read-out: Oral ED50).
For `CC[C@H]1OC(=O)[C@H](C)[C@@H](O[C@H]2C[C@@](C)(OC)[C@@H](O)[C@H](C)O2)[C@H](C)[C@@H](O[C@@H]2O[C@H](C)C[C@H](N(C)C)[C@H]2O)[C@](C)(O)C[C@@H](C)[C@H](NCCC2=C(C)CCCC2(C)C)[C@H](C)[C@@H](O)[C@]1(C)O` [Compound 30, 9-Deoxo-9-[[2-(2,6,6-trimethyl-1-cyclohexen-1-yl)ethyl]amino]erythromycin], in that order: over 50 mg/kg, over 50 mg/kg and over 50 mg/kg.
In the case of `CC[C@H]1OC(=O)[C@H](C)[C@@H](O[C@H]2C[C@@](C)(OC)[C@@H](O)[C@H](C)O2)[C@H](C)[C@@H](O[C@@H]2O[C@H](C)C[C@H](N(C)C)[C@H]2O)[C@](C)(O)C[C@@H](C)[C@H](NCCOC)[C@H](C)[C@@H](O)[C@]1(C)O` [Compound 31, 9-Deoxo-9-[(2-Methoxyethyl)amino]erythromycin], the ED50 in the assay on Staphylococcus aureus (po, read-out: Oral ED50) amounted to 35.2 mg/kg; in the assay on Staphylococcus aureus (setting [10]), 2.5 mg/kg; with Streptococcus pyogenes (po, read-out: Oral ED50), 16.3 mg/kg; with Streptococcus pyogenes (setting [10]) it was 2.1 mg/kg; with Streptococcus pneumoniae (po, read-out: Oral ED50), 18.7 mg/kg; with Streptococcus pneumoniae (setting [10]), 3.3 mg/kg.
Turning to `CCCN[C@@H]1[C@H](C)[C@@H](O)[C@@H](C)[C@@H](CC)OC(=O)[C@H](C)[C@@H](O[C@H]2C[C@@](C)(OC)[C@@H](O)[C@H](C)O2)[C@H](C)[C@@H](O[C@@H]2O[C@H](C)C[C@H](N(C)C)[C@H]2O)[C@](C)(O)C[C@H]1C` [Compound 38], the ED50 with Staphylococcus aureus (po, read-out: Oral ED50) was 41 mg/kg; in the assay on Streptococcus pyogenes (po, read-out: Oral ED50), 20.6 mg/kg; in the assay with Streptococcus pneumoniae (po, read-out: Oral ED50), 50 mg/kg.
On the same counts, the results for `CCCCCCCCCCN[C@@H]1[C@H](C)[C@@H](O)[C@@H](C)[C@@H](CC)OC(=O)[C@H](C)[C@@H](O[C@H]2C[C@@](C)(OC)[C@@H](O)[C@H](C)O2)[C@H](C)[C@@H](O[C@@H]2O[C@H](C)C[C@H](N(C)C)[C@H]2O)[C@](C)(O)C[C@H]1C` [Compound 41] are over 50 mg/kg, over 50 mg/kg and over 50 mg/kg.
For `CC[C@H]1OC(=O)[C@H](C)[C@@H](O[C@H]2C[C@@](C)(OC)[C@@H](O)[C@H](C)O2)[C@H](C)[C@@H](O[C@@H]2O[C@H](C)C[C@H](N(C)C)[C@H]2O)[C@](C)(O)C[C@@H](C)[C@H](NCCOCCOC)[C@H](C)[C@@H](O)[C@H]1C` [Compound 49], in that order: over 50 mg/kg, 40.9 mg/kg and over 56 mg/kg.
